The results in this text go back to patent US11365192B2, “Pyridine compound substituted with azole” (TAISHO PHARMACEUTICAL CO., LTD., priority 2017, dated 2022).

The target in one test is human CYP4F2 (Homo sapiens (Human), UniProt P78329). As to the kind of experiment: Inhibition test against 20-HETE producing enzyme CYP4F2 (luciferine derivative, luminescence). Type of test: biochemical. The method, boiled down: (§1)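 E. coli membranes (100 μg/mL protein) expressing human enzyme, room temperature 60 min, luciferin-derivative luminescence; IC50 from % inhibition. CYP4F2: 50 mM KPO4 pH 7.4, 2.5 μM substrate, 1 mM NADPH. CYP4A11: 100 mM Tris-HCl pH 7.5, 60 μM substrate, NADP+/glucose 6-phosphate/G6PDH regenerating system, 3.3 mM MgCl2.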

For a further test, the target named is human CYP4A11 (Homo sapiens (Human), UniProt Q02928). Description: Inhibition test against 20-HETE producing enzyme CYP4A11 (luciferine derivative, luminescence). Format: biochemical. The method, boiled down: as §1
Setting [1] is: E. coli membrane fraction expressing human CYP4F2, 2.5 μM luciferine derivative, room temperature 60 minutes.
[2] abbreviates: E. coli membrane fraction expressing human CYP4A11, 60 μM luciferine derivative, room temperature 60 minutes.
[3] abbreviates: human CYP4F2, luciferine derivative, luminescence.
Where [4] appears, read: human CYP4A11, luciferine derivative, luminescence.

Some results are limits rather than exact numbers.

Sequence of human CYP4F2 (P78329 5-520): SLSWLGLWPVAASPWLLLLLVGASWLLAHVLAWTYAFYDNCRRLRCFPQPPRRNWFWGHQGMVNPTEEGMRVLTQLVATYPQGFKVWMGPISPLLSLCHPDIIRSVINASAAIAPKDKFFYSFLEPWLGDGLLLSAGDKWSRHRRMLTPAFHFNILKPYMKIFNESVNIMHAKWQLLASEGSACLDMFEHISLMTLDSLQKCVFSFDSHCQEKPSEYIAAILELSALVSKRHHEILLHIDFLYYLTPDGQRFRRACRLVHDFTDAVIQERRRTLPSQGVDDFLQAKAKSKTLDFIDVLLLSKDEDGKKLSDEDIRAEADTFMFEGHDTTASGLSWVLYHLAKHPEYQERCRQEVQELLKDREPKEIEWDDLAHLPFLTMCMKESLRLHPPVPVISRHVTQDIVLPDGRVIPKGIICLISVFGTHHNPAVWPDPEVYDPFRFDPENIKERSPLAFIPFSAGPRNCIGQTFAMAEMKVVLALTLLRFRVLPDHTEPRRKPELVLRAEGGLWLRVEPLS
Sequence of human CYP4A11 (Q02928 5-519): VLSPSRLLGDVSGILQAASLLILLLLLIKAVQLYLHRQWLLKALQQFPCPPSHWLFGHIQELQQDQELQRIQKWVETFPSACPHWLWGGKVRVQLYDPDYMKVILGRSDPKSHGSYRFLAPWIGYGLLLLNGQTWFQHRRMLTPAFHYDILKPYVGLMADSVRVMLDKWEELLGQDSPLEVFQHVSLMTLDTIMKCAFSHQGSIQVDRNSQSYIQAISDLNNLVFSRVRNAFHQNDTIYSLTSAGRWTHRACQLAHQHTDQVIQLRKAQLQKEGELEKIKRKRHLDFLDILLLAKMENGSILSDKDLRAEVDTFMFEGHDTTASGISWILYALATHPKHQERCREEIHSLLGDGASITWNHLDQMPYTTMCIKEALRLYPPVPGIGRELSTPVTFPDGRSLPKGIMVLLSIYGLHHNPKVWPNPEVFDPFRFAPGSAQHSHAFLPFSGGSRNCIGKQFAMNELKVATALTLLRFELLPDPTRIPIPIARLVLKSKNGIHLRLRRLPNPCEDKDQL

By IC50 is commonly meant the point on the concentration scale where inhibition reaches its midpoint. A lower IC50 goes with inhibition by little substance. For the compound `CN(C)C(=O)N1CCC(O)(c2cccc(COc3ccc(-c4ccn[nH]4)nc3)c2)CC1` [Example 51-2], the IC50 on human CYP4F2 (setting [1]) came out at 3.5 nM; on human CYP4A11 (setting [2]), 310 nM.

As to `CC(=O)N1CCC(O)(c2cccc(COc3ccc(-c4ccn[nH]4)nc3)c2)CC1` [Example 52-1, 1-[4-Hydroxy-4-[3-[[6-(1-H-pyrazol-5-yl)-3-pyridinyl]oxymethyl]phenyl]-1-piperidinyl]ethanone], the IC50 on human CYP4F2 (setting [1]) worked out at 4.4 nM; against human CYP4A11 (setting [2]) it was 710 nM.

Regarding `CC(=O)N1CC(O)(c2cccc(COc3ccc(-c4ccn[nH]4)nc3)c2)C1` [Example 52-2], the IC50 against human CYP4F2 (setting [1]) worked out at 50 nM; on human CYP4A11 (setting [2]), 520 nM.

For the compound `NC(=O)c1cccc(COc2ccc(-c3ccn[nH]3)nc2)c1` [Example 53-1, 3-[[6-(1H-Pyrazol-5-yl)-3-pyridinyl]oxymethyl]benzamide], the IC50 at human CYP4F2 (setting [1]) came to 190 nM; on human CYP4A11 (setting [2]) it was 110 nM.

For the compound `NC(=O)c1cc(COc2ccc(-c3n[nH]cc3Cl)nc2)ccn1` [Example 53-2], the IC50 was 16 nM on human CYP4F2 (setting [1]) and 950 nM against human CYP4A11 (setting [2]).

As for `CS(=O)(=O)NC(=O)CCCCCOc1ccc(-c2ccn[nH]2)nc1` [Example 54-1, N-Methylsulfonyl-6-[[6-(1H-pyrazol-5-yl)-3-pyridinyl]oxy]hexanamide], the 50% inhibitory concentration (IC50) against human CYP4F2 (setting [1]) stood at 21000 nM; on human CYP4A11 (setting [2]), 70 nM.

For the compound `CC(C)(CCNC(=O)N1CCC[C@@H](COc2ccc(-c3ccn[nH]3)nc2)C1)C(=O)O` [Example 55-1, 2,2-Dimethyl-4-[[oxo-[(3R)-3-[[6-(1H-pyrazol-5-yl)-3-pyridinyl]oxymethyl]-1-piperidinyl]methyl]amino]butanoic Acid], the half-inhibitory concentration (IC50) at human CYP4F2 (setting [1]) turned out to be 6500 nM; on human CYP4A11 (setting [2]), 200 nM.

As for `CC(C)S(=O)(=O)Nc1cccc(COc2ccc(-c3ccn[nH]3)nc2)c1` [Example 56-1, N-[3-[[6-(1H-Pyrazol-5-yl)-3-pyridinyl]oxymethyl]phenyl]-2-propanesulfonamide], the values for the IC50 at human CYP4F2 (setting [1]) and against human CYP4A11 (setting [2]) were 450 nM and 140 nM, respectively.

For `CS(=O)(=O)N[C@H]1CC[C@@H](Oc2ccc(-c3ccn[nH]3)nc2)CC1` [Example 57-2], the IC50 at human CYP4F2 (setting [1]) was determined as 7300 nM; against human CYP4A11 (setting [2]), 6700 nM.

Regarding `CN([C@H]1CC[C@H](Oc2ccc(-c3ccn[nH]3)nc2)CC1)S(C)(=O)=O` [Example 57-3], the IC50 at human CYP4F2 (setting [1]) and on human CYP4A11 (setting [2]) was 2000 nM in each case.

`CS(=O)(=O)NCC12CC(COc3ccc(-c4ccn[nH]4)nc3)(C1)C2` [Example 58-1, N-[[3-[[6-(1H-Pyrazol-5-yl)-3-pyridinyl]oxymethyl]-1-bicyclo[1.1.1]pentanyl]methyl]methanesulfonamide]: the IC50 amounted to 120 nM on human CYP4F2 (setting [1]) and 580 nM against human CYP4A11 (setting [2]).

In the case of `CN(CC12CC(COc3ccc(-c4ccn[nH]4)nc3)(C1)C2)S(C)(=O)=O` [Example 58-2, N-Methyl-N-[[3-[[6-(1H-pyrazol-5-yl)-3-pyridinyl]oxymethyl]-1-bicyclo[1.1.1]pentanyl]methyl]methanesulfonamide], the results for the half-maximal inhibitory concentration (IC50) against human CYP4F2 (setting [1]) and against human CYP4A11 (setting [2]) were 5.1 nM and 240 nM, respectively.

In the case of `OC(Cc1cccc(COc2ccc(-c3ccn[nH]3)nc2)c1)C(F)(F)F` (centres unmarked) [Example 59-1, 1,1,1-Trifluoro-3-[3-[[6-(1H-pyrazol-5-yl)-3-pyridinyl]oxymethyl]phenyl]-2-propanol], the IC50 against human CYP4F2 (setting [1]) came out at 10 nM; at human CYP4A11 (setting [2]), 130 nM.

Turning to `OC(c1ccc(COc2ccc(-c3ccn[nH]3)nc2)cc1)C(F)F` (centres unmarked) [Example 59-2, 2,2-Difluoro-1-[4-[[6-(1H-pyrazol-5-yl)-3-pyridinyl]oxymethyl]phenyl]ethanol], the results for the IC50 against human CYP4F2 (setting [1]) and against human CYP4A11 (setting [2]) were 100 nM and 1800 nM, respectively.

For `OC(c1ccc(COc2ccc(-c3ccn[nH]3)nc2)cc1)C(F)(F)F` (centres unmarked) [Example 59-3], the IC50 against human CYP4F2 (setting [1]) stood at 41 nM; against human CYP4A11 (setting [2]) it was 1500 nM.

Turning to `O=C(O)C(F)(F)c1cccc(COc2ccc(-c3ccn[nH]3)nc2)c1` [Example 60-1, 2,2-Difluoro-2-[3-[[6-(1H-pyrazol-5-yl)-3-pyridinyl]oxymethyl]phenyl]acetic Acid], the figures for the half-inhibitory concentration (IC50) at human CYP4F2 (setting [1]) and at human CYP4A11 (setting [2]) were 37000 nM and 8.2 nM, respectively.

In the case of `OCC(F)(F)c1cccc(COc2ccc(-c3ccn[nH]3)nc2)c1` [Example 60-2, 2,2-Difluoro-2-[3-[[6-(1H-pyrazol-5-yl)-3-pyridinyl]oxymethyl]phenyl]ethanol], the concentration for half-maximal inhibition (IC50) was determined as 130 nM on human CYP4F2 (setting [1]) and 29 nM at human CYP4A11 (setting [2]).

Turning to `CS(=O)(=O)NC(=O)NCCCCOc1ccc(-c2ccn[nH]2)nc1` [Example 61-1, 1-Methylsulfonyl-3-[4-[[6-(1-H-pyrazol-5-yl)-3-pyridinyl]oxy]butyl]urea], the IC50 against human CYP4F2 (setting [1]) came out at 8000 nM; against human CYP4A11 (setting [2]) it was 72 nM.

As to `O=C1CN(CCCCOc2ccc(-c3ccn[nH]3)nc2)C(=O)N1` [Example 61-2, 1-[4-[[6-(1-H-pyrazol-5-yl)-3-pyridinyl]oxy]butyl]imidazolidine-2,4-dione], the IC50 came to 280 nM on human CYP4F2 (setting [1]) and 750 nM at human CYP4A11 (setting [2]).

In the case of `c1cc(-c2ccc(OCCCCCc3nnn[nH]3)cn2)[nH]n1` [Example 62-1, 2-(1H-Pyrazol-5-yl)-5-[5-(1H-tetrazol-5-yl)pentoxy]pyridine], the half-inhibitory concentration (IC50) at human CYP4F2 (setting [1]) came out at 3500 nM; against human CYP4A11 (setting [2]), 28 nM.

`O=c1[nH]c(CCCCCOc2ccc(-c3ccn[nH]3)nc2)no1` [Example 62-2, 3-[5-[[6-(1H-Pyrazol-5-yl)-3-pyridinyl]oxy]pentyl]-4H-1,2,4-oxadiazol-5-one]: the results for the 50% inhibitory concentration (IC50) against human CYP4F2 (setting [1]) and against human CYP4A11 (setting [2]) were 1900 nM and 27 nM, respectively.

As for `O=C1NC(=O)C(CCCCOc2ccc(-c3ccn[nH]3)nc2)O1` (centres unmarked) [Example 63-1, 5-[4-[[6-(1H-Pyrazol-5-yl)-3-pyridinyl]oxy]butyl]oxazolidine-2,4-dione], the IC50 against human CYP4F2 (setting [1]) came to 12000 nM; against human CYP4A11 (setting [2]) it was 31 nM.

Regarding `Oc1cc(CCCCOc2ccc(-c3ccn[nH]3)nc2)on1` [Example 64-1, 5-[4-[[6-(1H-Pyrazol-5-yl)-3-pyridinyl]oxy]butyl]-3-isoxazole], the values for the half-inhibitory concentration (IC50) on human CYP4F2 (setting [1]) and on human CYP4A11 (setting [2]) were 780 nM and 41 nM, respectively.

As to `O=S(=O)(NCc1cccc(COc2ccc(-c3ccn[nH]3)nc2)c1)C(F)(F)F` [Example 65-1, 1,1,1-Trifluoro-N-[[3-[[6-(1-H-pyrazol-5-yl)-3-pyridinyl]oxymethyl]phenyl]methyl]methanesulfonamide], the half-maximal inhibitory concentration (IC50) against human CYP4F2 (setting [1]) is 63 nM; at human CYP4A11 (setting [2]), 8.1 nM.

Regarding `CS(=O)(=O)c1cc(O)cc(COc2ccc(-c3[nH]ncc3Cl)nc2)c1` [Example 66-1, 3-[[6-(4-Chloro-1H-pyrazol-5-yl)-3-pyridinyl]oxymethyl]-5-methylsulfonylphenol], the IC50 on human CYP4F2 (setting [1]) stood at 16 nM; against human CYP4A11 (setting [2]), 33 nM.

Consider `NC(=O)c1cc(COc2ccc(-c3[nH]ncc3C(F)F)nc2)ccn1` [Example 67-1, 4-[[6-[4-(Difluoromethyl)-1H-pyrazol-5-yl]-3-pyridinyl]oxymethyl]-2-pyridinecarboxamide], for which the IC50 was 2700 nM against human CYP4F2 (setting [1]) and greater than 50000 nM on human CYP4A11 (setting [2]).

For the compound `O=C(O)[C@@H]1CCc2ccc(COc3ccc(-c4ccn[nH]4)nc3)cc2C1` [Example 69-1-1], the IC50 at human CYP4F2 (setting [3]) stood at 240 nM; on human CYP4A11 (setting [4]) it was 21 nM.

As for `O=C(O)[C@H]1CCc2ccc(COc3ccc(-c4ccn[nH]4)nc3)cc2C1` [Example 69-1-2], the results for the half-maximal inhibitory concentration (IC50) against human CYP4F2 (setting [3]) and against human CYP4A11 (setting [4]) were 200 nM and 25 nM, respectively.

Regarding `O=C(O)[C@@H]1COc2ccc(COc3ccc(-c4ccn[nH]4)nc3)cc2C1` [Example 69-2-1], the half-inhibitory concentration (IC50) is 600 nM against human CYP4F2 (setting [3]) and 37 nM against human CYP4A11 (setting [4]).

In the case of `O=C(O)[C@H]1COc2ccc(COc3ccc(-c4ccn[nH]4)nc3)cc2C1` [Example 69-2-2], the IC50 against human CYP4F2 (setting [3]) was 1100 nM; on human CYP4A11 (setting [4]) it was 36 nM.

For the compound `O=C(O)[C@@H]1CCc2ccc(COc3ccc(-c4ccn[nH]4)nc3)cc2O1` [Example 69-3-1], the figures for the IC50 on human CYP4F2 (setting [3]) and on human CYP4A11 (setting [4]) were 110 nM and 23 nM, respectively.

Regarding `O=C(O)[C@H]1CCc2ccc(COc3ccc(-c4ccn[nH]4)nc3)cc2O1` [Example 69-3-2], the values for the half-maximal inhibitory concentration (IC50) at human CYP4F2 (setting [3]) and against human CYP4A11 (setting [4]) were 300 nM and 220 nM, respectively.

Take `O=C(O)[C@@H]1CCCN(S(=O)(=O)c2cccc(COc3ccc(-c4ccn[nH]4)nc3)c2)C1` [Example 69-4-1]: the half-maximal inhibitory concentration (IC50) is 86 nM against human CYP4F2 (setting [3]) and 27 nM against human CYP4A11 (setting [4]).

For `O=C(O)[C@H]1CCCN(S(=O)(=O)c2cccc(COc3ccc(-c4ccn[nH]4)nc3)c2)C1` [Example 69-4-2], the half-maximal inhibitory concentration (IC50) against human CYP4F2 (setting [3]) came out at 670 nM; against human CYP4A11 (setting [4]), 40 nM.

On to `O=C(O)/C=C/c1cccc(COc2ccc(-c3ccn[nH]3)nc2)c1F` [Example 70-1, (E)-3-[2-Fluoro-3-[[6-(1H-pyrazol-5-yl)pyridin-3-yl]oxymethyl]phenyl]prop-2-enoic Acid], for which the results for the 50% inhibitory concentration (IC50) at human CYP4F2 (setting [3]) and against human CYP4A11 (setting [4]) were 49 nM and 27 nM, respectively.

Take `O=C(O)CCc1cccc(COc2ccc(-c3ccn[nH]3)nc2)c1F` [Example 70-2, 3-[2-Fluoro-3-[[6-(1H-pyrazol-5-yl)pyridin-3-yl]oxymethyl]phenyl]propanoic Acid]: the IC50 was determined as 1100 nM against human CYP4F2 (setting [3]) and 28 nM on human CYP4A11 (setting [4]).

As to `O=C(O)C1CC1c1cccc(COc2ccc(-c3ccn[nH]3)nc2)c1F` (centres unmarked) [Example 70-3, 2-[2-Fluoro-3-[[6-(1H-pyrazol-5-yl)pyridin-3-yl]oxymethyl]phenyl]cyclopropane-1-carboxylic Acid], the values for the IC50 on human CYP4F2 (setting [3]) and against human CYP4A11 (setting [4]) were 280 nM and 28 nM, respectively.

For `O=C(O)/C=C/c1cccc(CCOc2ccc(-c3ccn[nH]3)nc2)c1` [Example 70-4], the IC50 at human CYP4F2 (setting [3]) was determined as 56 nM; at human CYP4A11 (setting [4]), 150 nM.

Take `O=C(O)/C=C/c1ccc(CCOc2ccc(-c3ccn[nH]3)nc2)cc1F` [Example 70-5]: the IC50 against human CYP4F2 (setting [3]) came to 27 nM; against human CYP4A11 (setting [4]), 43 nM.

On to `O=C(O)/C=C/c1ccc(CCOc2ccc(-c3ccn[nH]3)nc2)cc1` [Example 70-6], for which the concentration for half-maximal inhibition (IC50) was found to be 47 nM on human CYP4F2 (setting [3]) and 76 nM against human CYP4A11 (setting [4]).
